Reference: paper PMC10113987, “A tool for nuclear imaging of the SARS-CoV-2 entry receptor: molecular model and preclinical development of ACE2-selective radiopeptides” (EJNMMI Research, 2023)
Positions of bridges follow the written chain, without caps; N, C: chain ends. Residues, ends and D or L forms follow the SMILES beside them. *: point of attachment. DOTA = O=C(O)CN1CCN(CC(=O)O)CCN(CC(=O)*)CCN(CC(=O)O)CC1; NODAGA = O=C(O)CN1CCN(CC(=O)O)CCN(C(CCC(=O)*)C(=O)O)CC1; Ahx = NCCCCCC(=O)O

Columns and labels:
[1] = Stability of the radiopeptide formulated in saline (HPLC); assay type: physicochemical; details: for Intact radiopeptide: 0.9% NaCl, room temperature, 20 MBq/nmol, 10 MBq/100 µL
Description: The purified [^67Ga]GaCl3 in HCl (~ 0.1 M) was added to a sodium acetate solution (0.5 M, pH 8) to obtain a buffered system of pH ~ 4. After adding the respective peptide (DOTA-DX600, NODAGA-DX600, HBED-CC-DX600 or DOTA-BPP9a) in a quantity to obtain the desired molar activity (5–20 MBq/nmol), the reaction mixture was incubated at 95 °C for 15 min. Quality control was performed using a Merck Hitachi LaChrom HPLC system (Additional file 1). The radiopeptides were used directly for in vitro and in vivo studies without further purification steps. The stability of the radiopeptides (20 MBq/nmol) formulated in 0.9% NaCl (10 MBq/100 µL) was assessed at room temperature (Additional file 1). The highest molar activity used in these studies was 20 MBq/nmol which means that one of 73–74 molecules was labeled with gallium-67. Nevertheless, the labeling efficiency of the DX600-based peptides was assessed using the highest possible molar activity that would still allow for the preparation of the DX600-based radiopeptide at a radiochemical purity of > 95% (Additional file 1).
Methods: The integrity of the radiopeptides (20 MBq/nmol), formulated in 0.9% NaCl (10 MBq/100 µL) and incubated at room temperature, was determined by HPLC using the system described above. The HPLC chromatograms were analyzed by determination of the peak area of the radiolabeled peptide, the released gallium-67, as well as degradation products of unknown structure. The quantity of the intact product was expressed as percentage of the sum of integrated peak areas of the entire chromatogram and set in relation to the original value determined at t = 0, which was set as 100%.

[2] = Blood plasma protein binding, mouse plasma (ultrafiltration); assay type: in vitro ADME; details: mouse, plasma, 30 min, 37 °C, read-out: Fraction bound to blood plasma proteins (converted)
Description: (§1) The radiopeptides (0.3 MBq; 15 pmol) were incubated in human or murine blood plasma (150 μL) for 30 min at 37 °C followed by cooling on ice, addition of ice-cold PBS (150 μL) and transfer of the samples to amicon filter devices (Amicon Ultra, 0.5 mL, Merck Millipore; cutoff 10 kDa). The filter ensured the retention of the radiopeptides bound to mouse plasma proteins or human plasma proteins during filtration (14,000 rcf, 30 min at 4 °C). Afterward, the filter inserts were inverted and centrifuged again (200 rcf, 3 min) to recover the protein-bound fraction of the radiopeptides. The activities of the free radiopeptides in the filtrate, as well as in the filter insert and the plasma protein-bound radiopeptides (Abound), were counted for activity separately in a γ-counter. The total activity (Atotal) was determined as the sum of the activities in the filtrate, filter insert, and protein-bound fractions. The percentage of radiopeptide bound to mouse serum albumin (MSA) and human serum albumin (HSA) was calculated as Abound/Atotal*100. The results were presented as average ± SD of three independent experiments (Additional file 1).
(§2) Methods: The detailed methods are reported in the main article. Control experiments were performed by incubation of the respective radiopeptides in phosphate-buffered saline (PBS) instead of blood plasma, followed by ultracentrifugation using Amicon filters.

[3] = system: mouse blood plasma proteins; test: as above; assay type: in vitro ADME; details: 30 min, 37 °C
Description: as §1, §2

[4] = In vitro stability in mouse blood plasma (TLC); assay type: in vitro ADME; details: 37 °C
Description: The ^67Ga-labeled DX600-radiopeptides (20 MBq/nmol) were incubated in human and mouse plasma (10 MBq/200 µL), respectively, at 37 °C. Aliquots were taken at variable time points up to 24 h for analysis using reversed phase thin layer chromatography (TLC) with citrate buffer (0.1 M, pH 5.5) as a mobile phase. Images of the TLC plates were obtained using a storage phosphor system (Cyclone Plus, PerkinElmer) and quantified using the OptiQuant software (version 5.0, Bright Instrument Co Ltd., PerkinElmer™) (Supplementary Information).
The radiopeptides were prepared and TLC experiments were performed immediately after radiolabeling by applying the diluted radiopeptides in saline (1 µL; ~0.05 MBq) and [^67Ga]GaCl3 solution (1 µL; ~0.05 MBq) on the TLC plates. The radiopeptides were incubated in mouse or human plasma (10 MBq/200 µL) at 37° C. TLC was performed with an aliquot of the plasma samples at the given timepoints (30 min, 1 h, 3 h and 24 h). The TLC plates were exposed to a phosphor screen followed by development using a storage phosphor system (Cyclone Plus, PerkinElmer). The quantification of the signals was carried out using the OptiQuant software (version 5.0, Bright Instrument Co Ltd., PerkinElmer^TM). The obtained chromatograms were analyzed by determination of the peak area of the radiolabeled peptide, the released gallium-67 as well as degradation products of unknown structure. The quantity of the intact product was expressed as percentage of the sum of integrated peak areas of the entire chromatogram.

FVB mice = test: In vivo stability in immunocompetent FVB mice (TLC of blood plasma, urine, kidneys); design: species or system mouse; details: 1 h p.i.; for Radiometabolites in kidney homogenates: fraction of accumulated activity
Description: In order to investigate the stability of the radiopeptides, the ^67Ga-labeled DX600 peptides (20 MBq/nmol) were tested in immunocompetent FVB mice (10 MBq in 100 μL per mouse). Before sacrificing, blood was collected from each mouse 1 h after injection of the radiopeptides. After centrifugation, the blood plasma was analyzed using reversed phase TLC with citrate buffer (0.1 M, pH 5.5) as a mobile phase. The kidneys were collected and processed to investigate the presence of intact radiopeptides and potential metabolites using the same TLC system. The analysis of the chromatograms was performed as described for the in vitro plasma stability (Additional file 1).
Methods: Immunocompetent FVB mice were injected with the DX600-based radiopeptides (n=2). One hour later, urine was collected and blood was sampled from the retrobulbar vein followed by centrifugation (10 min, 200 rcf). A drop of urine and blood plasma was analyzed using the TLC method described for in vitro stability experiments above (reversed phase as stationary phase and citrate buffer pH 5.5 as mobile phase). The data were also confirmed using normal phase TLC. Kidneys of mice were collected, cut into small pieces, homogenized in 200 μL buffer solution (ice-cold methanol containing 0.025% NH4OH) and centrifuged (5 min, 2300 rcf, 4° C) as described by Boss et al.. An aliquot of the supernatant of each sample was developed using the same TLC method as for urine and blood plasma samples. The TLC plates were exposed to a phosphor screen which was afterwards read using a storage phosphor system (Cyclone Plus, PerkinElmer). The quantification of the signals was carried out using the OptiQuant software (version 5.0, Bright Instrument Co Ltd., PerkinElmer^TM). The obtained chromatograms were analyzed by determination of the peak area of the radiolabeled peptide, the released gallium-67 as well as degradation products of unknown structure. The quantity of the intact product was expressed as percentage of the sum of integrated peak areas of the entire chromatogram.

SMILES | Degradation products (partial radiolysis) ([1]; saline, 24 h incubation) | fraction unbound [2] | Fraction bound to blood plasma proteins [3] | Intact radiopeptide in mouse blood plasma ([4]; 3 h) [%] | Release of gallium-67 in mouse blood plasma ([4]; 3 h) | Intact radiopeptide in mouse blood plasma ([4]; 24 h) [%] | Release of gallium-67 in mouse blood plasma ([4]; 24 h) [%] | Intact radiopeptide in mouse blood plasma ([4]; first hour) | Release of gallium-67 from the chelator in blood plasma (FVB mice) | Radiometabolites in kidney homogenates (FVB mice) | Intact radiopeptide ([1]; 1 h) [%] | Intact radiopeptide ([1]; 3 h) [%] | Intact radiopeptide ([1]; 24 h) [%]
CC[C@H](C)[C@H](NC(=O)[C@H](CCC(N)=O)NC(=O)[C@@H]1CCCN1C(=O)[C@H](CCCNC(=N)N)NC(=O)[C@@H]1CCCN1C(=O)[C@H](Cc1c[nH]c2ccccc12)NC(=O)[C@H](CCC(=O)O)NC(=O)CCCCCNC(=O)CCCCCNC(=O)CN1CCN(CC(=O)O)CCN(CC(=O)O)CCN(CC(=O)O)CC1)C(=O)N1CCC[C@H]1C(=O)N1CCC[C@H]1C(=O)O [[^67Ga]Ga-DOTA-BPP9a, metal not drawn] ({DOTA-Ahx-Ahx}-EWPRPQIPP-OH) | ~ 11% | 0.47 | ~ 53% |  |  |  |  |  |  |  |  |  | 
CC(=O)N[C@@H](CCCCNC(=O)CN1CCN(CC(=O)O)CCN(CC(=O)O)CCN(CC(=O)O)CC1)C(=O)NCC(=O)N[C@@H](CC(=O)O)C(=O)N[C@@H](Cc1ccc(O)cc1)C(=O)N[C@@H](CO)C(=O)N[C@@H](Cc1c[nH]cn1)C(=O)N[C@H]1CSSC[C@@H](C(=O)N[C@H](C(=O)N[C@@H](Cc2ccc(O)cc2)C(=O)N2CCC[C@H]2C(=O)N[C@@H](CC(=O)O)C(=O)N2CCC[C@H]2C(=O)N[C@@H](CCC(=O)O)C(=O)NCC(=O)NCC(=O)NCC(N)=O)[C@@H](C)O)NC(=O)[C@H](CCCCN)NC(=O)[C@H](Cc2c[nH]c3ccccc23)NC(=O)[C@H](Cc2c[nH]c3ccccc23)NC(=O)[C@@H]2CCCN2C(=O)[C@H](Cc2ccc(O)cc2)NC(=O)[C@H](Cc2ccc(O)cc2)NC(=O)[C@H](CCCNC(=N)N)NC(=O)[C@H](CC(C)C)NC(=O)[C@@H]2CCCN2C(=O)[C@H](CO)NC1=O [[^67Ga]Ga-DOTA-DX600, metal not drawn] (Ac-K(DOTA)GDYSHCSPLRYYPWWKCTYPDPEGGG-NH2; disulfide 7-18) |  |  |  | 95 ± 3 | ~ 4% | 20 ± 13 | > 50 | intact | 3.5 % of the total activity determined in the blood | ~ 93% |  |  | 
CC(=O)N[C@@H](CCCCNC(=O)CCC(C(=O)O)N1CCN(CC(=O)O)CCN(CC(=O)O)CC1)C(=O)NCC(=O)N[C@@H](CC(=O)O)C(=O)N[C@@H](Cc1ccc(O)cc1)C(=O)N[C@@H](CO)C(=O)N[C@@H](Cc1c[nH]cn1)C(=O)N[C@H]1CSSC[C@@H](C(=O)N[C@H](C(=O)N[C@@H](Cc2ccc(O)cc2)C(=O)N2CCC[C@H]2C(=O)N[C@@H](CC(=O)O)C(=O)N2CCC[C@H]2C(=O)N[C@@H](CCC(=O)O)C(=O)NCC(=O)NCC(=O)NCC(N)=O)[C@@H](C)O)NC(=O)[C@H](CCCCN)NC(=O)[C@H](Cc2c[nH]c3ccccc23)NC(=O)[C@H](Cc2c[nH]c3ccccc23)NC(=O)[C@@H]2CCCN2C(=O)[C@H](Cc2ccc(O)cc2)NC(=O)[C@H](Cc2ccc(O)cc2)NC(=O)[C@H](CCCNC(=N)N)NC(=O)[C@H](CC(C)C)NC(=O)[C@@H]2CCCN2C(=O)[C@H](CO)NC1=O (stereo partly shown) [[^67Ga]Ga-NODAGA-DX600, metal not drawn] (Ac-K(NODAGA)GDYSHCSPLRYYPWWKCTYPDPEGGG-NH2; disulfide 7-18) |  |  |  | 97 ± 1 |  | 36 ± 7 |  |  |  | ~ 90% | ≥99 | ≥99 | ≥99
